Patent US20100331297A1, “MODULATION OF PROTEIN TRAFFICKING” (FOLDRX PHARMACEUTICALS, INC., priority 2007, published 2010)

Target: ΔF508 CFTR (Homo sapiens, UniProt P13569, DEL508-508)
Assay: Corrector activity, YFP halide (iodide) quenching assay in FRT cells expressing ΔF508 CFTR
Assay type: cell-based
Parameters: expressed in transfected cells; host or cells: Fischer rat thyroid (FRT) cells
Settings: FRT cells ΔF508 CFTR/YFP, 24 hours with compound at 37° C., forskolin and genistein; read-out: Corrector EC50
Procedure: Fisher rat thyroid (FRT) cells stably expressing ΔF508 CFTR and a halide-sensitive variant of yellow fluorescent protein (YFP) were seeded into microtiter plates and allowed to grow for 24 hours at 37° C. and 5% CO2. See Pedemonte et al., J. Clin. Invest. […] Compounds in dimethylsulfoxide (DMSO) solution were pre-diluted into cell culture medium, the medium was removed from cells, and then fresh medium containing the compounds was applied. The cells were incubated for a further 24 hours at 37° C. and 5% CO2.
Activity of CFTR was assayed by removing the medium, washing the cell monolayer with phosphate-buffered saline solution (PBS), and then applying PBS containing forskolin and genistein. After 30 min incubation at 37° C., the plates were placed in a fluorescence plate reader equipped with a reagent injector.
Corrector activity was calculated as follows. Normalized endpoint fluorescence was calculated by dividing the endpoint fluorescence after iodide injection by the initial fluorescence reading and multiplication by 100. Corrector EC50 values were calculated from the activity vs. concentration data using a 4-parameter log fit. The bottom of the curve was constrained to zero activity (DMSO control) while the slope, EC50, and top of the curve were fitted to the data. The EC50 was determined as the concentration that corresponds to the inflection point of the fitted curve.

Chain of ΔF508 CFTR (P13569 with tags, fused parts or gaps DEL508-508): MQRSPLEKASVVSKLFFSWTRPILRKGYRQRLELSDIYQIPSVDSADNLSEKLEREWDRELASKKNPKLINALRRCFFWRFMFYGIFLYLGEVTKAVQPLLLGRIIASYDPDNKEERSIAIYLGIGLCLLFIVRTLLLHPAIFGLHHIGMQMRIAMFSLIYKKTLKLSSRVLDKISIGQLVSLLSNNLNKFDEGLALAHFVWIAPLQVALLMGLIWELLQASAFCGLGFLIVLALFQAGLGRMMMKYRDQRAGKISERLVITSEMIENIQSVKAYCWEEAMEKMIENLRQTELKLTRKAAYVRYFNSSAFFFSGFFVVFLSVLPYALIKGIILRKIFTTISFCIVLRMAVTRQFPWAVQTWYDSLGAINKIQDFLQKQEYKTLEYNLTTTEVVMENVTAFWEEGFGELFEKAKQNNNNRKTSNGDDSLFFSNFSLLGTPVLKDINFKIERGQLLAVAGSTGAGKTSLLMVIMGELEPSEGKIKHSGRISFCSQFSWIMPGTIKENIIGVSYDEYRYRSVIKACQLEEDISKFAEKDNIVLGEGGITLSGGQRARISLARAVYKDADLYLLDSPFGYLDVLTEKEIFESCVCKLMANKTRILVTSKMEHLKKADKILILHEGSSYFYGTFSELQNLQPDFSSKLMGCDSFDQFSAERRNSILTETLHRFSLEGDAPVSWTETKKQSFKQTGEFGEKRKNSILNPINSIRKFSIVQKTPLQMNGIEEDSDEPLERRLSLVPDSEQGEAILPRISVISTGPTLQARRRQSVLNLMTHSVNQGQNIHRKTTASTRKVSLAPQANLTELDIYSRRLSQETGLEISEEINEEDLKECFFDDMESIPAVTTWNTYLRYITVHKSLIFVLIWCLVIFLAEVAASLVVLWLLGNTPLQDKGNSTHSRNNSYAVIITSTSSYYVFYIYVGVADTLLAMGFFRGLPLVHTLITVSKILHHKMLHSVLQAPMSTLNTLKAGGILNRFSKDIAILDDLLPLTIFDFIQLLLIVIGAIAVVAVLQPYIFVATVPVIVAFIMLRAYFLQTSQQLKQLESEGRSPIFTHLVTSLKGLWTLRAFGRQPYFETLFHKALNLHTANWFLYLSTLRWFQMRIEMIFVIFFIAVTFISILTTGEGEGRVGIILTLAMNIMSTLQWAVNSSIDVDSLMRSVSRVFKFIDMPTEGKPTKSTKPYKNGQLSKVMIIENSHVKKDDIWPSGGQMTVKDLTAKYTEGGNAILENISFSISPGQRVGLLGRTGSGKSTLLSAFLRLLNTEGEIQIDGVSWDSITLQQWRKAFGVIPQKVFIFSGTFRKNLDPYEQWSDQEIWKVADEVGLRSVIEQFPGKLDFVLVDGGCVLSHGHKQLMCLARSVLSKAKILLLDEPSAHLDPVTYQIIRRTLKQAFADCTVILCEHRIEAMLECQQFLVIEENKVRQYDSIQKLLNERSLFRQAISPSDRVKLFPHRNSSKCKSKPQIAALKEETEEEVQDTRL

| SMILES | EC50 [µM] |
| --- | --- |
| CCC(=O)Nc1ncnc2c1c(-c1cccc(Cl)c1)cn2C(C)(C)C [compound 368] | 5 to 10 |
| CC(=O)N1CC(n2nc(Oc3cccc(Cl)c3)c3c(N)ncnc32)C1 [compound 380] | > 15 |
| CC(C)(C)C(=O)Nc1ncnc2c1cnn2C(C)(C)C [compound 389] | > 15 |
| CC(C)(C)n1nc(Br)c2c(NC(=O)c3ccccc3)ncnc21 [compound 421] | 2 to 5 |
| CC(=O)N1CCC(n2nc(Oc3ccccc3)c3c(N)ncnc32)CC1 [compound 420] | > 15 |
| CC(C)C(=O)Nc1ncnc2c1cnn2C(C)(C)C [compound 390] | > 15 |
| Nc1ncnc2c1c(Oc1cccc(Cl)c1)nn2C1CCOC1 (centres unmarked) [compound 358] | > 15 |
| Nc1ncnc2c1c(Oc1ccccc1)nn2C1CCNCC1 [compound 417] | > 15 |
| CCn1nc(Sc2ccc(F)cc2F)c2c(N)ncnc21 [compound 258] | > 15 |
| CC(C)(C)n1nc(Oc2cccc(Cl)c2)c2c(NC(=O)C3CCCC3)ncnc21 [compound 338] | 5 to 10 |
| CCn1nc(N(C)c2ccccc2)c2c(N)ncnc21 [Compound No. 248, 1-Ethyl-N^3-methyl-N^3-phenyl-1H-pyrazolo[3,4-d]pyrimidine-3,4-diamine] | > 15 |
| CC(C)(C)n1nc(-c2nc3ccccc3o2)c2c(N)ncnc21 [Compound No. 355, 3-Benzooxazol-2-yl-1-tert-butyl-1H-pyrazolo[3,4-d]pyrimidin-4-ylamine] | 2 to 5 |
| CCn1nc([S+]([O-])c2ccccc2C)c2c(N)ncnc21 (centres unmarked) [compound 222] | > 15 |
| CC(C)(C)n1cc(-c2ccc(Cl)cc2)c2c(NC(=O)C3CCOC3)ncnc21 (centres unmarked) [compound 374] | < 2 |
| CC(C)(C)C(=O)Nc1ncnc2c1c(Br)nn2C(C)(C)C [compound 422] | 2 to 5 |
| CC(C)(C)C1N=C(c2ccc(Cl)cc2)c2c(NC(=O)C3CCC3)ncnc21 (centres unmarked) [compound 192] | 2 to 5 |

| SMILES | EC50 [µM] |
| --- | --- |
| CC(C)(C)OC(=O)N1CC(n2nc(Oc3cccc(Cl)c3)c3c(N)ncnc32)C1 [compound 357] | > 15 |
| CN1CC(n2nc(Sc3cccc(Cl)c3)c3c(N)ncnc32)C1 [compound 382] | > 15 |
| CC(C)(C)n1nc(Br)c2c(N(C(=O)c3ccccc3)C(=O)c3ccccc3)ncnc21 [compound 425] | 2 to 5 |
| CC(=O)N1CC(n2nc([S+]([O-])c3ccccc3)c3c(N)ncnc32)C1 (centres unmarked) [compound 404] | > 15 |
| CC(C)(C)n1nc(Oc2cccc(Cl)c2)c2c(NC(=O)N3CCCC3)ncnc21 [compound 400] | > 15 |
| CC(C)(C)n1cc(-c2ccc(Cl)cc2)c2c(NC(=O)C3CCCO3)ncnc21 (centres unmarked) [compound 376] | 2 to 5 |
| Nc1ncnc2c1c(Oc1cccc(Cl)c1)nn2C1CNC1 [compound 414] | > 15 |
| CCNC(=O)Nc1ncnc2c1c(Cc1cccc(Cl)c1)nn2C1CN(C(=O)NCC)C1 [compound 424] | > 15 |
| Cc1ccc(-c2nn(C(C)(C)C)c3ncnc(Nc4ncccn4)c23)cc1 [Compound No. 234, (1-tert-Butyl-3-p-tolyl-1H-pyrazolo[3,4-d]pyrimidin-4-yl)-pyrimidin-2-yl-amine] | > 15 |
| CC(C)N1CC(n2nc(Oc3cccc(Cl)c3)c3c(N)ncnc32)C1 [compound 402] | > 15 |
| CN1CC(n2nc(Cc3cccc4ccccc34)c3c(N)ncnc32)C1 [compound 387] | > 15 |
| CC(C)C(=O)Nc1ncnc2c1c(Br)nn2C(C)(C)C [compound 423] | < 2 |
| CC(C)(C)n1nc(Oc2nccc3ccccc23)c2c(N)ncnc21 [compound 370, 1-tert-Butyl-3-(isoquinolin-1-yloxy)-1H-pyrazolo[3,4-d]pyrimidin-4-ylamine] | > 15 |
| Nc1ncnc2c1c(Oc1ccccc1)nn2C1CCOC1 (centres unmarked) [compound 359] | > 15 |
| CC(C)(C)n1ncc2c(NC(=O)c3ccccc3)ncnc21 [Compound No. 388, N-(1-tert-Butyl-1H-pyrazolo[3,4-d]pyrimidin-4-yl)-benzamide] | > 15 |

Further lines, results first:

| EC50 [µM] | SMILES |
| --- | --- |
| 5 to 10 | CC(C)(C)n1nc(-c2ccc(Cl)cc2)c2c(NC(=O)C(=O)c3ccccc3)ncnc21 [Compound No. 395, N-[1-tert-Butyl-3-(4-chloro-phenyl)-1H-pyrazolo[3,4-d]pyrimidin-4-yl]-2-oxo-2-phenyl-acetamide] |
| > 15 | CN(C)/C=N/c1ncnc2c1c(-c1ccc(Cl)cc1)nn2C(C)(C)C [Compound No. 232, N′-[1-tert-Butyl-3-(4-chloro-phenyl)-1H-pyrazolo[3,4-d]pyrimidin-4-yl]-N,N-dimethyl-formamidine] |
| > 15 | CC1CCC(n2nc(-c3ccc(Cl)cc3)c3c(N)ncnc32)CC1 (centres unmarked) [compound 361] |
| > 15 | CC(C)(C)n1nc(-c2ccc(Cl)cc2)c2c(NC(=O)N3CCCC3)ncnc21 [compound 398] |
| > 15 | CCn1nc(Nc2ccccc2)c2c(N)ncnc21 [Compound No. 223, 1-Ethyl-N^3-phenyl-1H-pyrazolo[3,4-d]pyrimidine-3,4-diamine] |
| > 15 | CC(C)(C)n1cc(-c2cccc(Cl)c2)c2c(N)ncnc21 [compound 354] |
| > 15 | CCn1nc([S+]([O-])c2ccc(F)cc2)c2c(N)ncnc21 (centres unmarked) [compound 254] |
| > 15 | CC(C)(C)n1cc(-c2ccc(Cl)cc2)c2c(NC(=O)N3CCCC3)ncnc21 [compound 399] |
| > 15 | CNC(=S)Nc1ncnc2c1c(-c1ccc(Cl)cc1)nn2C(C)(C)C [Compound No. 397, 1-[1-tert-Butyl-3-(4-chloro-phenyl)-1H-pyrazolo[3,4-d]pyrimidin-4-yl]-3-methyl-thiourea] |
| 5 to 10 | CC(C)(C)n1nc(-c2ccc(Cl)cc2)c2c(NC(=O)C3CC3)ncnc21 [compound 396] |
| > 15 | CCn1nc([S+]([O-])c2cccc(Br)c2)c2c(N)ncnc21 (centres unmarked) [compound 392] |
| 2 to 5 | CCn1cc(-c2ccc(Cl)cc2)c2c(N(C(C)=O)C(C)=O)ncnc21 [compound 211, N-Acetyl-N-[5-(4-chloro-phenyl)-7-ethyl-7H-pyrrolo[2,3-d]pyrimidin-4-yl]-acetamide] |
| > 15 | CC(=O)n1nc(-c2ccc(Cl)cc2)c2c(N)ncnc21 [compound 181, 1-[4-Amino-3-(4-chloro-phenyl)-pyrazolo[3,4-d]pyrimidin-1-yl]-ethanone] |
| 5 to 10 | CCNC(=O)n1nc(-c2ccc(Cl)cc2)c2c(N)ncnc21 [Compound No. 213, 4-Amino-3-(4-chloro-phenyl)-pyrazolo[3,4-d]pyrimidine-1-carboxylic acid ethylamide] |
| 5 to 10 | CC(C)(C)n1nc(-c2ccc(Cl)cc2)c2c(NC(=O)C3CCOC3)ncnc21 (centres unmarked) [compound 393] |
| > 15 | CCNC(=O)N1CC(n2nc(Oc3cccc(Cl)c3)c3c(N)ncnc32)C1 [compound 381] |
| > 15 | CN1CCC(C(=O)Nc2ncnc3c2c(-c2ccc(Cl)cc2)nn3C(C)(C)C)C1 (centres unmarked) [compound 363] |
| > 15 | COCCn1nc(-c2ccc(Cl)cc2)c2c(N)ncnc21 [compound 171] |
| > 15 | Nc1ncnc2c1c(-c1ccc(Cl)cc1)nn2CCc1ccccc1 [compound 243] |

| EC50 [µM] | SMILES |
| --- | --- |
| > 15 | CN1CC[C@H](n2nc(-c3ccc(Cl)cc3)c3c(N)ncnc32)C1 [compound 379] |
| > 15 | CCNC(=O)N1CC(n2nc([S+]([O-])c3ccccc3)c3c(N)ncnc32)C1 (centres unmarked) [compound 419] |
| > 15 | CCOC(=O)N1CC(n2nc(Oc3cccc(Cl)c3)c3c(N)ncnc32)C1 [compound 403] |
| > 15 | CC(C)C(=O)C(=O)Nc1ncnc2c1c(-c1ccc(Cl)cc1)nn2C(C)(C)C [compound 394] |
| > 15 | CCn1nc(Sc2cccc(O)c2)c2c(N)ncnc21 [compound 250] |
| > 15 | CC(=O)N(C(C)=O)c1ncnc2c1c(-c1ccc(F)cc1)nn2C(C)(C)C [compound 117, N-Acetyl-N-[1-tert-butyl-3-(4-fluoro-phenyl)-1H-pyrazolo[3,4-d]pyrimidin-4-yl]-acetamide] |
| < 2 | CCn1c(C)c(-c2ccc(Cl)cc2)c2c(NC(=O)C(C)C)ncnc21 [compound 364] |
| > 15 | CN1CCC(n2nc(-c3ccc(Cl)cc3)c3c(N)ncnc32)CC1 [compound 378] |
| > 15 | Nc1ncnc2c1c(-c1ccc(Cl)cc1)nn2C(=O)NCc1ccccc1 [compound 215] |
| > 15 | CC(C)(C)n1nc(-c2ccc(Cl)cc2)c2c(NC(=O)NCc3ccccc3)ncnc21 [compound 231] |
| > 15 | CCn1nc(Oc2cccc(Cl)c2)c2c(N)ncnc21 [compound 260] |
| > 15 | CC(=O)c1ccc(-c2nn(C(C)(C)C)c3ncnc(N)c23)cc1 [compound 125] |
| > 15 | Nc1ncnc2c1c([S+]([O-])c1cccc(Cl)c1)nn2C1CNC1 (centres unmarked) [compound 418] |
| < 2 | CC(C)C(=O)Nc1ncnc2c1c(-c1ccc(Cl)cc1)cn2C(C)(C)C [compound 337] |
| 2 to 5 | CCn1c(C)c(-c2ccc(Cl)cc2)c2c(NC(=O)C3CCCC3)ncnc21 [compound 365] |
| > 15 | Nc1ncnc2c1c(-c1ccc(Cl)cc1)nn2C(=O)Nc1ccccc1 [compound 214] |
| > 15 | CCn1nc(Sc2ccncc2)c2c(N)ncnc21 [compound 249] |
| > 15 | CC(C)(C)n1nc(-c2ccc(Cl)cc2)c2c(Nc3ncccn3)ncnc21 [compound 235] |
